Test results from patent US20090148424A1, “Reversibly immortalized mammalian liver cells and use thereof” (priority 2004, published 2009).

Key:
CYNK-1 cell = experiment: Ganciclovir sensitivity of CYNK-1 cell (MTT assay); assay type: cell-based, human; details: one-week cultivation with 5 μM of GCV
Source text: (§1) Two hundred CYNK-1 cells (deposited with International Patent Organism Depository, National Institute of Advanced Industrial Science and Technology, address: AIST Tsukuba Central 6, 1-1, Higashi 1-Chome, Tsukuba-shi, Ibaraki-ken, 305-8566 Japan, deposited date: Mar. 10, 2004, accession number: FERM BP-08657) were inoculated in a 96-well plate, cultured in CS-C serum free culture medium alone or CS-C serum free culture media containing various concentrations of ganciclovir (5, 10, 20, 50 or 100 μM) and then cell proliferation was investigated by MTT assay (see Mcsmann T. J., Immunol. Methods, 65, 55, 1983).
Cell viability is shown in FIG. 7 as relative sensitivity. Ganciclovir sensitivity of the CYNK-1 cell (deposited with International Patent Organism Depository, National Institute of Advanced Industrial Science and Technology, address: AIST Tsukuba Central 6, 1-1, Higashi 1-Chome Tsukuba-shi, Ibaraki-ken, 305-8566 Japan, deposited date: Mar. 10, 2004, accession number: FERM BP-08657) depends on the concentration of ganciclovir.

reverted CYNK-1 cells = experiment: Ganciclovir sensitivity of reverted CYNK-1 cells; assay type: cell-based, human
Source text: as §1, with “[…].,” for “Mcsmann T. J.,”, “1983). […] All of the cells died within 10 days.” for “1983).”

Nc1nc(O)c2ncn(COC(CO)CO)c2n1 [GCV, ganciclovir]
effect on cell proliferation / viability (CYNK-1 cell): stopped cell proliferation and some of the cells died | time until all of the cells died (reverted CYNK-1 cells; 5 μM of GCV): ≤ 10 days | effect on cell proliferation / viability (reverted CYNK-1 cells; one-week cultivation in the presence of 5 μM of GCV): stopped cell proliferation and some of the cells died
